US5059438A, “Compositions and methods for inhibiting browning in foods using resorcinol derivatives” (Enzytech, Inc., priority 1990, dated 1991)

Columns and labels:
PPO (mushroom) = test: Inhibition of PPO by various resorcinol derivatives (linear spectrophotometric assay); type: biochemical; conditions: 0.133 mM L-DOPA, pH 6.5, 25° C., 475 nm, read-out: I50 (apparent inhibition constant)
Protocol: In order to determine the effect of various resorcinol compounds on the inhibition of PPO (mushroom), a linear spectrophotmetric assay system similar to that described in Example 1 was used. The assay mixture consisted of:
5 mM sodium phosphate, pH 6.5;
0.133 mM L-dihydroxyphenylalanine (L-DOPA); PPO (mushroom); and
+/- varied concentrations of the compound to be tested
The rate of the reaction was monitored by measuring the change in absorbance per minute at 475 nm at 25° C.
I50 represents the concentration of inhibitor necessary to obtain fifty (50%) percent inhibition of the enzyme.

pink shrimp melanosis = test: Effect of 4-hexylresorcinol, Formula VI and Formula IV compounds on development of shrimp melanosis; set-up: species or system Penaeus duorarum
Protocol: In one embodiment of the present invention, pink shrimp were treated with an aqueous solution of the compound of Formula II. Formula II was used at concentrations ranging from 0.0001 to 0.005%, and compared to shrimp treated with sodium bisulfite and sea water. The sea water treated shrimp developed melanosis spots within 1-2 days. […] A concentration of up to about 0.1% of Formula II can be used for inhibiting browning.
Harvests were arranged such that fresh, heads-on pink shrimp were obtained within less than 12 hours post-harvest at the dock. All shrimp were routinely washed on-board and temporarily stored in ice. The basic procedure was to rinse 400-600 grams of shrimp in 2.5 liters of variable dip compositions and concentrations for 1 minute then drain and package in plastic bags to be stored in ice. The bags were considered necessary to eliminate the variable influence of melting ice. Iced containers with packaged shrimp were stored in 35° F. (1.7° C.) refrigeration with reicing every other day.
Development of melanosis was scored and photographed routinely during 2 weeks of storage. The bags of shrimp had been numbered such that the investigator could not distinguish amongst the various treatments. One experienced investigator did all scoring relative to the aforementioned scale (Table 2). The scale was accompanied by pre-developed color prints depicting common examples of the advancing stages for melanosis. The intent was to screen for obvious differences between treatments, thus selecting the best treatments for subsequent tests with statistical evaluations.
Pink shrimp were treated and evaluated as described in Example 8 except that the compound of Formula II (4-hexylresorcinol, Sigma Chemical Co.) was substituted for the Formula V compound. Pink shrimp were dipped into solutions of 0.0001-0.005% of the Formula II compound and stored as described above.
Pink shrimp were treated and evaluated as described in Example 8 except that the compound of Formula VI (see Example 6) was substituted for the Formula V compound. Pink shrimp were dipped into solutions of 0.001-0.025%of the Formula VI compound and stored as described above.
Pink shrimp were treated and evaluated as described in Example 8 except that the compound of Formula IV (2,4-dihydroxyphenylpropionic acid) was substituted for the Formula V compound. Pink shrimp were dipped into solutions of 0.001-0.1% the Formula IV compound and stored as described above.

[1] = test system: fresh pink shrimp (Penaeus duorarum) melanosis; test: Effect of Formula V compound on fresh pink shrimp melanosis
Protocol: Pink shrimp (Penaeus duorarum) were treated and evaluated as described in Example 8 except that the experiment was carried out on a shrimp boat with freshly caught shrimp. The shrimp were not frozen prior to treatment with various concentrations of the compound of Formula V. All solutions were prepared in sea water.
Fresh pink shrimp were treated and evaluated as described in Example 12. The shrimp treated with 0.025% of the compound of Formula V were stored directly or following a sea water rinse, post-treatment.
Fresh pink shrimp were treated and evaluated as described in Example 12. The shrimp were dipped in a 0.01% solution of the compound of Formula V made up in either sea or fresh water.
Fresh pink shrimp were treated and evaluated as described in Example 12. In this example, different one pound batches of shrimp were dipped into the same one liter solution of 0.01% of the Formula V compound for one minute each. A total of eight dips were performed.

PPO in peaches = conditions: Wong et al. 1971; cited from earlier work
[2] = test system: McIntosh apples, browning; test: Inhibition of browning in apples by Formula V and YM5 eluate; conditions: lactose 9.0%, 1,4-diaminobutane 5 mM
Protocol: Two fresh and unbruised whole McIntosh apples, held at ambient temperature,were sliced with a stainless steel paring knife into quarters, cored, then cut into 1/4-inch slices. A volume of 0.8 mL of each of the treatment solutions listed in Table 5 at ambient temperature was applied onto the top exposed surface of freshly cut white slices, triplicate samples per treatment. […] Following application, the slices stood at ambient temperature, exposed to air and light, for periodic visual observation of relative rate and extent of browning, from 15 minutes to 4 hours.

[3] = test system: mushroom PPO (catecholase); conditions: Kuttner and Wagreich 1952; cited from earlier work

CCCCCCc1ccc(O)cc1O [Formula II, 4-hexylresorcinol]
IC50 (PPO (mushroom)): 0.5 µM | inhibiting browning of shrimp on a weight basis vs sodium bisulfite (pink shrimp melanosis; 0.0001 to 0.005% (FIG. 10)): more effective on a weight basis than sodium bisulfite | inhibiting shrimp melanosis vs sodium bisulfite (pink shrimp melanosis; 0.005% by weight vs 1.25% by weight bisulfite (FIG. 10)): almost as effective in inhibiting shrimp melanosis as a solution of 1.25% by weight bisulfite | lowest concentration inhibiting formation of shrimp melanosis (potent inhibitor at concentrations as low as) (pink shrimp melanosis; FIG. 10, tested 0.0001-0.005%): 0.0005%

CCCCCC(=O)c1ccc(O)cc1O [4-Hexanoylresorcinol]
IC50 (PPO (mushroom)): 750 µM

NCCCCNC(=O)CCc1ccc(O)cc1O [Formula V, 2,4-dihydroxyphenylpropionyldiaminobutane]
effect of fresh or sea water as solvent on inhibition of shrimp melanosis (FIG. 8) ([1]; 0.01%): no significant effect | effect of post-treatment sea water rinse on inhibition of shrimp melanosis (FIG. 7) ([1]; 0.025%): no significant effect

CCc1ccc(O)cc1O [4-Ethylresorcinol]
IC50 (PPO (mushroom)): 0.8 µM

CCCc1ccc(O)cc1O [4-n-Propylresorcinol]
IC50 (PPO (mushroom)): 1.8 µM

CCCCCCCCCCCCc1ccc(O)cc1O [4-Dodecylresorcinol]
IC50 (PPO (mushroom)): 0.3 µM

Oc1ccc(C2CCCCC2)c(O)c1 [4-Cyclohexylresorcinol]
IC50 (PPO (mushroom)): 0.2 µM

O=C(O)c1ccc(O)cc1O [4-Carboxyresorcinol, 2,4-Dihydroxybenzoic Acid]
IC50 (PPO (mushroom)): 150 µM

Oc1cc(O)c2c(c1)O[C@H](c1ccc(O)c(O)c1)[C@@H](O)C2 [d-catechin]
reaction with 4-methyl-o-quinone formed by PPO in peaches (PPO in peaches): react with 4-methyl-o-quinone | substrate for PPO (PPO in peaches): not substrates for PPO

Oc1cccc(O)c1 [Resorcinol, 1,3-dihydroxybenzene]
IC50 (PPO (mushroom)): 2700 µM | reaction with 4-methyl-o-quinone formed by PPO in peaches (PPO in peaches): react with 4-methyl-o-quinone | substrate for PPO (PPO in peaches): not substrates for PPO

Cc1cc(O)cc(O)c1 [orcinol]
reaction with 4-methyl-o-quinone formed by PPO in peaches (PPO in peaches): react with 4-methyl-o-quinone | substrate for PPO (PPO in peaches): not substrates for PPO

NCCCCN [1,4-diaminobutane]
prevention of browning of apples, conclusion [2]: did not prevent browning

O=C(O)CCc1ccc(O)cc1O [Formula IV, 2,4-dihydroxyphenylpropionic acid]
lowest concentration inhibiting formation of shrimp melanosis (inhibitor at concentrations as low as) (pink shrimp melanosis; FIG. 12, tested 0.001-0.1%): 0.05%

O=C(O)c1ccccc1 [benzoic acid]
inhibition of mushroom PPO (catecholase) [3]: inhibited

OC[C@H]1O[C@@H](O[C@H]2[C@H](O)[C@@H](O)C(O)O[C@@H]2CO)[C@H](O)[C@@H](O)[C@H]1O (stereo partly shown) [Lactose]
prevention of browning of apples, conclusion [2]: did not prevent browning

Oc1cc(O)cc(O)c1 [phloroglucinol]
reaction with 4-methyl-o-quinone formed by PPO in peaches (PPO in peaches): react with 4-methyl-o-quinone | substrate for PPO (PPO in peaches): not substrates for PPO

O=C(CCc1ccc(O)cc1O)NCCCCNC(=O)CCc1ccc(O)cc1O [Formula VI, bis-2,4-dihydroxyphenylpropionyldiaminobutane]
IC50 (PPO (mushroom)): 5 µM | lowest concentration inhibiting formation of shrimp melanosis (potent inhibitor at concentrations as low as) (pink shrimp melanosis; FIG. 11, tested 0.001-0.025%): 0.005%

O=C(CCc1ccc(O)cc1O)NCCCCNCCCNC(=O)CCc1ccc(O)cc1O [Formula VII, bis-2,4-dihydroxyphenylpropionylspermidine]
IC50 (PPO (mushroom)): 5 µM
